These are literature values, as cited in PMC3018413, “Uptake and Metabolism of the Novel Peptide Angiotensin-(1-12) by Neonatal Cardiac Myocytes” (PLoS ONE, 2011).

The test system of series [1] is Ang II formation from Ang-(1–12). Particulars: ref Prosser et al. [29] as printed. The text has this: In the controlled environment of a cell culture system, neonatal cardiac myocytes of SHR and WKY metabolized ^125I-Ang-(1–12) into Ang I, leading to sequential production of Ang II, Ang-(1–7), and other smaller angiotensin fragments. […] This new observation is in ...

For series [2], the system named is human renal tubular epithelial cells.

In the case of `CC(C)C[C@H](NC(=O)[C@@H](NC(=O)N[C@@H](Cc1ccccc1)C(=O)O)[C@@H]1CCN=C(N)N1)C(=O)N[C@H](C=O)Cc1ccccc1` [chymostatin], the “inhibition of Ang II formation from Ang-(1–12)” value in series [1] is given as “completely inhibited”.

B1: angiotensinogen: angiotensinogen protein bound to human renal tubular epithelial cells, cited study (protein, UniProt P01019 25-476, looked up)
Angiotensinogen: DRVYIHPFHLVIHNESTCEQLAKANAGKPKDPTFIPAPIQAKTSPVDEKALQDQLVLVAAKLDTEDKLRAAMVGMLANFLGFRIYGMHSELWGVVHGATVLSPTAVFGTLASLYLGALDHTADRLQAILGVPWKDKNCTSRLDAHKVLSALQAVQGLLVAQGRADSQAQLLLSTVVGVFTAPGLHLKQPFVQGLALYTPVVLPRSLDFTELDVAAEKIDRFMQAVTGWKTGCSLMGASVDSTLAFNTYVHFQGKMKGFSLLAEPQEFWVDNSTSVSVPMLSGMGTFQHWSDIQDNFSVTQVPFTESACLLLIQPHYASDLDKVEGLTFQQNSLNWMKKLSPRTIHLTMPQLVLQGSYDLQDLLAQAELPAILHTELNLQKLSNDRIRVGEVLNSIFFELEADEREPTESTQQLNKPEVLEVTLNRPFLFAVYDQSATALHFLGRVANPLSTA
As to B1, the “bound angiotensinogen that could be displaced” value in series [2] is recorded as no more than 50%.
